In patent US8835421B2, “Benzimidazole linked pyrrolo[2,1-c[1,4] benzodiazepine hybrids as potential antitumour agents and process for the preparation thereof” (Council of Scientific and Industrial Research, priority 2008, dated 2014):

Experiments:
calf thymus DNA (CT-DNA) = test: Thermal denaturation studies with duplex-form calf thymus DNA; format: binding; conditions: [PBD]:[DNA] 1:5, CT-DNA 100 μM, ligand 20 μM, sodium phosphate buffer pH 7.00; for ΔTm after incubation at 37° C. for 0 h: 0 h incubation at 37° C.; for ΔTm after incubation at 37° C. for 18 h: 18 h incubation at 37° C.
Description: Compounds have been subjected to thermal denaturation studies with duplex-form calf thymus DNA (CT-DNA) using an modification of a reported procedure (Newman, M. S. Carcinog-compr. Surv. 1976, 1, 203; (b) Hecht, S. S.; Loy, M.; Hoffman, Carcinog-compr. Surv. 1976, 1, 325). Working solutions in aqueous buffer (10 mM NaH2PO4/Na2HPO4, 1 mM Na2EDTA, pH 7.00+0.01) containing CT-DNA (100 μm in phosphate) and the PBD (20 μm) have been prepared by addition of concentrated PBD solutions in DMSO to obtain a fixed [PBD]/[DNA] molar ratio of 1:5. The DNA-PBD solutions have been incubated at 37° C. for 0 and 18 h prior to analysis. Samples have been, monitored at 260 nm using a Beckman DU-800 spectrophotometer fitted with high performance temperature controller, and heated at 1° C. min^−1 in the 40-110° C. range. DNA helix→coil transition temperatures (Tm) have been obtained from the maxima in the d(A260)/d T derivative plots. Drug-induced alterations in DNA melting behavior are given by: ΔTm=Tm(DNA+PBD)−Tm(DNA alone), where the Tm value for the PBD-free CT-DNA is 69.1±0.01.
The DNA binding activity for these novel C8-linked benzimidazole-PBD hybrids has been examined by thermal denaturation studies using calf thymus (CT) DNA. […] The data for the compounds 8a-g, 11a-d and 14 is included in Table 1 for comparison.

sixty human tumour cells = test: NCI in vitro anticancer screen (SRB, 48 h), mean graph midpoints over all cell lines; format: cell-based; conditions: 48 h continuous drug exposure, SRB assay; for Log10LC50 mean graph midpoint (MG_MID): 50% cell death; for Log10GI50 mean graph midpoint (MG_MID): 50% cell growth inhibition; for Log10TGI mean graph midpoint (MG_MID): total cell growth inhibition
Description: (§1) Anticancer activity: In vitro biological activity studies were carried out at the National Cancer Institute (USA).
(§2) The compounds were evaluated for in vitro anticancer activity against sixty human tumour cells derived from nine cancer types (leukemia, non-small-cell lung, colon, CNS, melanoma, ovarian, prostate, and breast cancer) as shown in Table 3. For each compound, dose response curves for each cell line were measured at a minimum of five concentrations at 10 fold dilutions. A protocol of 48 h continuous drug exposure was used and a sulforhodamine B (SRB) protein assay was used to estimate cell viability or growth. The concentration causing 50% cell growth inhibition (GI50), total cell growth inhibition (TGI 0% growth) and 50% cell death (LC50, −50% growth) compared with the control was calculated. The mean graph midpoint values of log10 TGI and log10 LC50 as well as log10 GI50 for 8c, 8e, 11a, 11c and 14 are listed in Table 2.

[1] = system: Leukemia cancer cell lines; test: NCI in vitro anticancer screen (SRB, 48 h), leukemia; format: cell-based, human; conditions: average of six to nine cell lines; for GI50: Homo sapiens, read-out: Log10 GI50 (converted)
Description: as §1, §2
(§3) Each cancer type represents the average of six to nine different cancer cell lines.

[2] = system: Non-small-cell-lung cancer cell lines; test: NCI in vitro anticancer screen (SRB, 48 h), non-small-cell lung; format: cell-based, human; conditions: average of six to nine cell lines; for GI50: Homo sapiens, read-out: Log10 GI50 (converted)
Description: as §1, §2, §3

Colon cancer cell lines = test: NCI in vitro anticancer screen (SRB, 48 h), colon; format: cell-based, human; conditions: average of six to nine cell lines; for GI50: Homo sapiens, read-out: Log10 GI50 (converted)
Description: as §1, §2, §3

CNS cancer cell lines = test: NCI in vitro anticancer screen (SRB, 48 h), CNS; format: cell-based, human; conditions: average of six to nine cell lines; for GI50: Homo sapiens, read-out: Log10 GI50 (converted)
Description: as §1, §2, §3

[3] = system: Melanoma cancer cell lines; test: NCI in vitro anticancer screen (SRB, 48 h), melanoma; format: cell-based, human; conditions: average of six to nine cell lines; for GI50: Homo sapiens, read-out: Log10 GI50 (converted)
Description: as §1, §2, §3

[4] = system: Ovarian cancer cell lines; test: NCI in vitro anticancer screen (SRB, 48 h), ovarian; format: cell-based, human; conditions: average of six to nine cell lines; for GI50: Homo sapiens, read-out: Log10 GI50 (converted)
Description: as §1, §2, §3

Renal cancer cell lines = test: NCI in vitro anticancer screen (SRB, 48 h), renal; format: cell-based, human; conditions: average of six to nine cell lines; for GI50: Homo sapiens, read-out: Log10 GI50 (converted)
Description: as §1, §2, §3

[5] = system: Prostate cancer cell lines; test: NCI in vitro anticancer screen (SRB, 48 h), prostate; format: cell-based, human; conditions: average of six to nine cell lines; for GI50: Homo sapiens, read-out: Log10 GI50 (converted)
Description: as §1, §2, §3

Breast cancer cell lines = test: NCI in vitro anticancer screen (SRB, 48 h), breast; format: cell-based, human; conditions: average of six to nine cell lines; for GI50: Homo sapiens, read-out: Log10 GI50 (converted)
Description: as §1, §2, §3

Compound	ΔTm after incubation at 37° C. for 0 h (calf thymus DNA (CT-DNA)) [°C]	ΔTm after incubation at 37° C. for 18 h (calf thymus DNA (CT-DNA)) [°C]	Log10LC50 mean graph midpoint (MG_MID) (sixty human tumour cells)	Log10GI50 mean graph midpoint (MG_MID) (sixty human tumour cells)	Log10TGI mean graph midpoint (MG_MID) (sixty human tumour cells)	GI50 [1] [nM]	GI50 [2] [nM]	GI50 (Colon cancer cell lines) [nM]	GI50 (CNS cancer cell lines) [nM]	GI50 [3] [nM]	GI50 [4] [nM]	GI50 (Renal cancer cell lines) [nM]	GI50 [5] [nM]	GI50 (Breast cancer cell lines) [nM]	further results
COc1cc2c(cc1O)N=CC1CCCN1C2=O (centres unmarked) [DC-81, reference compound]	0.3	0.7													
COc1cc2c(cc1OCCCCCn1c(-c3cccs3)nc3ccccc31)N=C[C@@H]1CCCN1C2=O [Compound 8f, 7-Methoxy-8-{5-[2-(2-thienyl)-1H-benzimidazol-1-yl]pentyl}oxy-(11aS)-1,2,3,11a-tetrahydro-5H-pyrrolo[2,1-c][1,4]benzodiazepin-5-one]	6.1	6.1													
COc1cc2c(cc1OCCCn1c(-c3cccn3C)nc3ccccc31)N=C[C@@H]1CCCN1C2=O [Compound 8g, 7-Methoxy-8-{3-[2-(1-Methyl-2-pyrrolyl)-1H-benzimidazol-1,4]propyl}-oxy-(11aS)-1,2,3,11a-tetrahydro-5H-pyrrolo[2,1-c][1,4]benzodiazepin-5-one]	2.0	3.1													
COc1cc2c(cc1OCCCn1c(-c3cccs3)nc3ccccc31)N=C[C@@H]1CCCN1C2=O [Compound 8d, 7-Methoxy-8-{3-[2-(2-thienyl)-1H-benzimidazol-1-yl]propyl}oxy-(11aS)-1,2,3,11a-tetrahydro-5H-pyrrolo[2,1-c][1,4]benzodiazepin-5-one]	3.9	5.1													
COc1cc2c(cc1OCCCCCn1c(-c3ccc(OCc4ccccc4)cc3)nc3ccc(N4CCOCC4)cc31)N=C[C@@H]1CCCN1C2=O [Compound 11c, 7-Methoxy-8-{5-[2-[(4-(benzyloxy)phenyl)-6-morpholino]benzimidazol-1-yl]pentyl}oxy-(11aS)-1,2,3,11a-tetrahydro-5H-pyrrolo[2,1-c][1,4]benzodiazepin-5-one]	2.9	3.2	−4.24	−5.83	−5.00	603	1950	2290	2690	1550	2190	759	2190	1550	
COc1cc2c(cc1OCCCCn1c(-c3cccs3)nc3ccccc31)N=C[C@@H]1CCCN1C2=O [Compound 8e, 7-Methoxy-8-{4-[2-(2-thienyl)-1H-benzimidazol-1-yl]butyl}oxy-(11aS)-1,2,3,11a-tetrahydro-5H-pyrrolo[2,1-c][1,4]benzodiazepin-5-one]	0.1	1.0	−4.51	−5.81	−5.18	1000	2090	1950	1580	1580	2000	1580	1320	912	
COc1cc2c(cc1OCCCCCn1c(-c3ccco3)nc3ccccc31)N=C[C@@H]1CCCN1C2=O [Compound 8c, 7-Methoxy-8-{5-[2-(2-furyl)-1H-benzimidazol-1-yl]pentyl}oxy-(11aS)-1,2,3,11a-tetrahydro-5H-pyrrolo[2,1-c][1,4]benzodiazepin-5-one]	5.1	7.0	−4.60	−7.91	−6.89	< 10	< 12	< 12	< 10	< 12	< 10	< 12	< 22.9	< 16.2	
COc1cc2c(cc1OCCCn1c(-c3ccco3)nc3ccccc31)N=C[C@@H]1CCCN1C2=O [Compound 8a, 7-Methoxy-8-{3-[2-(2-furyl)-1H-benzimidazol-1-yl]propyl}oxy-(11aS)-1,2,3,11a-tetrahydro-5H-pyrrolo[2,1-c][1,4]benzodiazepin-5-one]	5.1	6.1													
COC(=O)c1ccc2nc(-c3cn(C)c4ccccc34)n(CCCCOc3cc4c(cc3OC)C(=O)N3CCC[C@H]3C=N4)c2c1 [Compound 14, Methyl-1-[(4-(11aS)-7-methoxy-1,2,3,11a-tetrahydro-5H-pyrrolo[2,1-c][1,4]benzodiazepin-5-one-8-yl)oxybutyl]-2-(1-methyl-3-indolyl)benzimidazol-6-carboxylate]	1.5	2.0	−4.92	−6.19	−5.65										Log10 GI50 [1]: −6.88 mol/L; Log10 GI50 [2]: −6.08 mol/L; Log10 GI50 (Colon cancer cell lines): −6.04 mol/L; Log10 GI50 (CNS cancer cell lines): −6.00 mol/L; Log10 GI50 [3]: −6.27 mol/L; Log10 GI50 [4]: −6.04 mol/L; Log10 GI50 (Renal cancer cell lines): −6.10 mol/L; Log10 GI50 [5]: −6.62 mol/L; Log10 GI50 (Breast cancer cell lines): −6.14 mol/L
COc1cc2c(cc1OCCCn1c(-c3ccccn3)nc3ccccc31)N=C[C@@H]1CCCN1C2=O [Compound 11a, 7-Methoxy-8-{3-[2-(2-pyridyl)-1H-benzimidazol-1-yl]propyl}oxy-(11aS)-1,2,3,11a-tetrahydro-5H-pyrrolo[2,1-c][1,4]benzodiazepin-5-one]	3.0	4.2	−4.42	−5.75	−5.14	3090	1580	1910	2510	2190	1620	1410	1350	1050	
COc1cc2c(cc1OCCCCCn1c(-c3ccccn3)nc3ccccc31)N=C[C@@H]1CCCN1C2=O [Compound 11b, 7-Methoxy-8-{5-[2-(2-pyridyl)-1H-benzimidazol-1-yl]pentyl}oxy-(11aS)-1,2,3,11a-tetrahydro-5H-pyrrolo[2,1-c][1,4]benzodiazepin-5-one]	1.0	1.2													
CCOC(=O)c1ccc2nc(-c3ccc(OCc4ccccc4)cc3)n(CCCCCOc3cc4c(cc3OC)C(=O)N3CCC[C@H]3C=N4)c2c1 [Compound 11d, Ethyl-2-[4-(benzyloxy)phenyl]-[(5-(11aS)-7-methoxy-1,2,3,11a-tetrahy-dro-5H-pyrrolo[2,1-c][1,4]benzodiazepin-5-one-8-yl)oxypentyl]-2-benzimidazol-6-carboxylate]	2.0	3.0													
COc1cc2c(cc1OCCCCn1c(-c3ccco3)nc3ccccc31)N=C[C@@H]1CCCN1C2=O [Compound 8b, 7-Methoxy-8-{4-[2-(2-furyl)-1H-benzimidazol-1-yl]butyl}oxy-(11aS)-1,2,3,11a-tetrahydro-5H-pyrrolo[2,1-c][1,4]benzodiazepin-5-one]	0.1	1.0													
